The target of this experiment is T1, full length active recombinant SYK enzyme (Homo sapiens, UniProt P43405).
T1 construct: full length active recombinant SYK enzyme (Millipore, CA); purchased Millipore, CA
The experiment in a line: Inhibition of Syk tyrosine phosphorylation activity (LANCE TR-FRET kinase assay). Type of experiment: biochemical. Particulars: 1 nM active SYK enzyme, 550 nM SYK-substrate, 100 μM ATP, 1 hour at room temperature. The method, then:
The in vitro and in vivo human Syk activities of the inventive compounds can be determined by various procedures known in the art, such as a test for their ability to inhibit the activity of human plasma Syk. […] The IC50 value is the concentration (in nM) of the compound required to provide 50% inhibition of human Syk proteolytic activity.
An in vitro assay for detecting and measuring inhibition activity against Syk is as follows:
SYK tyrosine phosphorylation activity is measured using the LANCE™ Technology developed by Perkin Elmer Life and Analytical Sciences (Boston, Mass.). LANCE™ refers to homogeneous time resolved fluorometry applications using techniques such as time-resolved fluorescence resonance energy transfer assay (TR-FRET) (see generally for procedures in Perkin Elmer Application Note—How to Optimize a Tyrosine Kinase Assay Using Time Resolved Fluorescence-Based LANCE Detection, wwww.perkinelmer.com/lifesciences). The assay principle involves detection of a phosphorylated substrate using energy transfer from a phosphospecific europium-labeled antibody to streptavidin-allophycocyanin as an acceptor.
Molecules are reconstituted in 30% DMSO and serially diluted 1:3 with the final dilution containing DMSO in the absence of the candidate molecule. The final DMSO concentration in the assay is 3%. Kinase assays are performed as a two part reaction. The first reaction is a kinase reaction and which comprises of a candidate molecule, full length active recombinant SYK enzyme (Millipore, CA) and biotin-labeled SYK-specific substrate biotin-DEEDYESP-OH. The second reaction involves termination of the kinase reaction and the simultaneous addition of the detection reagents-europium-labeled anti-phosphotyrosine reagent (Eu-W1024-PY100, Perkin Elmer, Boston, Mass.) and Streptavidin-Allophycocyanin detection reagent (SA-APC, Prozyme, CA). The kinase reaction is performed in a black U-bottom 96-well microtitre plate. The final reaction volume is 50 μL and contains a final concentration of 1 nM active SYK enzyme, 550 nM SYK-substrate, and 100 μM ATP diluted in a buffer containing 50 mM Tris pH 7.5, 5 mM MgCl2, and 1 mM DTT. The reaction is allowed to proceed for 1 hour at room temperature. The quench buffer contains 100 mM Tris pH 7.5, 300 mM NaCl2, 20 mM EDTA, 0.02% Brij35, and 0.5% BSA. The detection reagents are added to the reaction mixture at the following dilutions-1:500 for Eu-W1024-PY100 and 1:250 for SA-APC. The kinase reaction is terminated by the addition of 50 μL quench buffer containing the detection reagents. The detection is allowed to proceed for 1 hr at room temperature. Detection of the phosphorlated substrate in the absence and presence of inhibitors is measured in the TR-FRET instrument, Analyst HT (Molecular Probes, Sunnyvale, Calif.) and the condition for measurements are set up using CriterionHost Release 2.0 (Molecular Probes, Sunnyvale, Calif.). The settings used are a follows: excitation 360 nm, emission 665-7.5 nm, beam splitter 350 nm 50/50, flash 100 pulses, delay 60 us, integration 400 us, z-height 2 mm. Inhibition of SYK-tyrosine kinase activity is calculated as the maximum response observed in the presence of inhibitor, compared to that in the absence of inhibitor. IC50s were derived by non-linear regression analysis.
(In general: Time-resolved FRET reads energy transfer from a long-lived donor to a nearby acceptor.)
As to `Cn1cc(Nc2cc(N[C@@H]3CCCC[C@@H]3N)cnc2C(N)=O)cn1` [Example 24, 5-((1R,2S)-2-aminocyclohexylamino)-3-(1-methyl-1H-pyrazol-4-ylamino)picolinamide], the IC50 (as a rule, the point on the concentration scale where inhibition reaches its midpoint) lay in the range of 100 to 1000 nM.

Turning to `Cc1cc(Nc2cc(N[C@@H]3CCOC[C@@H]3N)cnc2C(N)=O)sn1` [Example 23, 5-((3R,4R)-3-aminotetrahydro-2H-pyran-4-ylamino)-3-(3-methylisothiazol-5-ylamino)picolinamide], the IC50 is 1 to 10 nM.

As for `Cc1cc(Nc2cc(N[C@H](CCS(C)(=O)=O)C(N)=O)cnc2C(N)=O)sn1` [Example 45, (R)-5-(1-amino-4-(methylsulfonyl)-1-oxobutan-2-ylamino)-3-(3-methylisothiazol-5-ylamino)picolinamide], the IC50 was 10 to 100 nM.

As for `NC(=O)c1ncc(N[C@@H]2CCCC[C@@H]2N)cc1Nc1cc(-c2ccccc2)no1` [Example 8, 5-((1R,2S)-2-aminocyclohexylamino)-3-(3-phenylisoxazol-5-ylamino)picolinamide], the half-inhibitory concentration (IC50) is 1 to 10 nM.

Consider `Cc1cc(Nc2cc(N[C@@H]3CCCC[C@@H]3N)cnc2C(N)=O)on1` [Example 10, 5-((1R,2S)-2-aminocyclohexylamino)-3-(3-methylisoxazol-5-ylamino)picolinamide], for which the IC50 lay within 10 to 100 nM.

Take `NC(=O)c1ncc(N[C@@H]2CCCC[C@@H]2N)cc1Nc1cnn2ccccc12` [Example 25, 5-((1R,2S)-2-aminocyclohexylamino)-3-(pyrazolo[1,5-a]pyridin-3-ylamino)picolinamide]: the IC50 is 100 to 1000 nM.

Regarding `CC(C)(C)C[C@@H](Nc1cnc(C(N)=O)c(Nc2cc(F)c3ncccc3c2)c1)C(N)=O` [Example 40, (R)-5-(1-amino-4,4-dimethyl-1-oxopentan-2-ylamino)-3-(8-fluoroquinolin-6-ylamino)picolinamide], the IC50 fell in the range of 10 to 100 nM.

Regarding `CC[C@@H](Nc1cnc(C(N)=O)c(Nc2cc(C3CC3)ns2)c1)C(N)=O` [Example 38, (R)-5-(1-amino-1-oxobutan-2-ylamino)-3-(3-cyclopropylisothiazol-5-ylamino)picolinamide], the IC50 is 1 to 10 nM.

With `NC(=O)c1ncc(N[C@@H]2CCCC[C@@H]2N)cc1Nc1cncs1` [Example 56, 5-(((1R,2S)-2-aminocyclohexyl)amino)-3-(thiazol-5-ylamino)picolinamide], the half-maximal inhibitory concentration (IC50) is more than 1000 nM.

`Cc1cc(Nc2cc(N[C@@H]3CCCC[C@@H]3N)cnc2C(N)=O)sn1` [Example 4, 5-((1R,2S)-2-aminocyclohexylamino)-3-(3-methylisothiazol-5-ylamino)picolinamide]: the IC50 was 1 to 10 nM.

Consider `Cc1cc(Nc2cc(N[C@H](CC(C)C)C(N)=O)cnc2C(N)=O)sn1` [Example 1, (R)-5-(1-amino-4-methyl-1-oxopentan-2-ylamino)-3-(3-methylisothiazol-5-ylamino)picolinamide], for which the IC50 was in the range of 1 to 10 nM.

Turning to `CC(C)(C)[C@@H](Nc1cnc(C(N)=O)c(Nc2cc(C3CC3)ns2)c1)C(N)=O` [Example 39, (R)-5-(1-amino-3,3-dimethyl-1-oxobutan-2-ylamino)-3-(3-cyclopropylisothiazol-5-ylamino)picolinamide], the IC50 fell in the range of 10 to 100 nM.

In the case of `CC(C)c1cc(Nc2cc(N[C@@H]3CCCC[C@@H]3N)cnc2C(N)=O)on1` [Example 36, 5-((1R,2S)-2-aminocyclohexylamino)-3-(3-isopropylisoxazol-5-ylamino)picolinamide], the IC50 is 10 to 100 nM.

Regarding `NC(=O)c1ncc(N[C@@H]2CCCC[C@@H]2N)cc1Nc1cc(-c2ccncc2)no1` [Example 49, 5-((1R,2S)-2-aminocyclohexylamino)-3-(3-(pyridin-4-yl)isoxazol-5-ylamino)picolinamide], the IC50 lay in the range of 1 to 10 nM.

As for `Cc1cc(Nc2cc(N[C@H](C)C(N)=O)cnc2C(N)=O)sn1` [Example 43, (R)-5-(1-amino-1-oxopropan-2-ylamino)-3-(3-methylisothiazol-5-ylamino)picolinamide], the IC50 was in the range of 10 to 100 nM.

In the case of `CCc1cc(Nc2cc(N[C@@H]3CCCC[C@@H]3N)cnc2C(N)=O)on1` [Example 37, 5-((1R,2S)-2-aminocyclohexylamino)-3-(3-ethylisoxazol-5-ylamino)picolinamide], the IC50 is 10 to 100 nM.

For `COC[C@@H](Nc1cnc(C(N)=O)c(Nc2cc(C)ns2)c1)C(N)=O` [Example 48, (R)-5-(1-amino-3-methoxy-1-oxopropan-2-ylamino)-3-(3-methylisothiazol-5-ylamino)picolinamide], the IC50 was 10 to 100 nM.

Turning to `CC(C)C[C@@H](Nc1cnc(C(N)=O)c(Nc2ccc3ncccc3c2)c1)C(N)=O` [Example 16, (R)-5-(1-amino-4-methyl-1-oxopentan-2-ylamino)-3-(quinolin-6-ylamino)picolinamide], the IC50 was in the range of 10 to 100 nM.

On to `Cc1nsc(Nc2cc(N[C@H](CC3CC3)C(N)=O)cnc2C(N)=O)c1I` [Example 31, (R)-5-((1-amino-3-cyclopropyl-1-oxopropan-2-yl)amino)-3-((4-iodo-3-methylisothiazol-5-yl)amino)picolinamide], for which the half-inhibitory concentration (IC50) was 100 to 1000 nM.

For the compound `NC(=O)c1ncc(N[C@@H]2CCCC[C@@H]2N)cc1Nc1ccc2ccncc2c1` [Example 14, 5-((1R,2S)-2-aminocyclohexylamino)-3-(isoquinolin-7-ylamino)picolinamide], the IC50 was 10 to 100 nM.

As to `NC(=O)c1ncc(N[C@@H]2CCOC[C@@H]2N)cc1Nc1cc(-c2cccnc2)no1` [Example 53, 5-((3R,4R)-3-aminotetrahydro-2H-pyran-4-ylamino)-3-(3-(pyridin-3-yl)isoxazol-5-ylamino)picolinamide], the IC50 lay in the range of 10 to 100 nM.

As to `NC(=O)c1ncc(N[C@@H]2CCCC[C@@H]2N)cc1Nc1cc(C2CC2)no1` [Example 34, 5-((1R,2S)-2-aminocyclohexylamino)-3-(3-cyclopropylisoxazol-5-ylamino)picolinamide], the IC50 is 1 to 10 nM.

Turning to `Cc1cc(Nc2cc(N[C@H](CC(F)(F)F)C(N)=O)cnc2C(N)=O)sn1` [Example 44, (R)-5-(1-amino-4,4,4-trifluoro-1-oxobutan-2-ylamino)-3-(3-methylisothiazol-5-ylamino)picolinamide], the IC50 is less than 1 nM.

On to `CC[C@@H](Nc1cnc(C(N)=O)c(Nc2cnc3cccnc3c2)c1)C(N)=O` [Example 54, (R)-3-(1,5-naphthyridin-3-ylamino)-5-(1-amino-1-oxobutan-2-ylamino)picolinamide], for which the IC50 lay within 100 to 1000 nM.

On to `Cc1cc(Nc2cc(N[C@@H](C(N)=O)C(C)C)cnc2C(N)=O)sn1` [Example 7, (R)-5-(1-amino-3-methyl-1-oxobutan-2-ylamino)-3-(3-methylisothiazol-5-ylamino)picolinamide], for which the IC50 fell in the range of 10 to 100 nM.

In the case of `CC(C)C[C@@H](Nc1cnc(C(N)=O)c(Nc2cc(-c3ccccc3)no2)c1)C(N)=O` [Example 11, (R)-5-(1-amino-4-methyl-1-oxopentan-2-ylamino)-3-(3-phenylisoxazol-5-ylamino)picolinamide], the IC50 fell in the range of 1 to 10 nM.

In the case of `CC(C)(C)C[C@@H](Nc1cnc(C(N)=O)c(Nc2ccc3cccnc3c2)c1)C(N)=O` [Example 41, (R)-5-(1-amino-4,4-dimethyl-1-oxopentan-2-ylamino)-3-(quinolin-7-ylamino)picolinamide], the IC50 lay in the range of 1 to 10 nM.

`NC(=O)c1ncc(N[C@@H]2CCCC[C@@H]2N)cc1Nc1ccc2ncccc2c1` [Example 27, 5-((1R,2S)-2-aminocyclohexylamino)-3-(quinolin-6-ylamino)picolinamide]: the IC50 is 10 to 100 nM.
